One assay has as its target T1, PqsD (Pseudomonas aeruginosa, UniProt P20582).
T1 construct: expressed in transfected cells; host or cells: E. coli BL21 containing pDEST/pqsD, induced with anhydrotetracyclin
The assay can be described thus: Proteomic analysis of active site modification of PqsD after in situ inhibition. The format is cell-based. The conditions noted are these: PqsD inhibited in live E. coli cells, tryptic digest, LC-MS. The method, then: In situ labelling was performed, and 2×SDS loading buffer was added directly to the resulting lysates. After SDS-PAGE and Coomassie staining, the protein band corresponding to PqsD was cut out of the gel. Then, tryptic digestion, sample preparation and LC-MS analysis were performed: Coomassie gel bands were washed in MilliQ for 15 sec, bands cut as close as possible and placed in Eppendorf tubes. For reduction and alkylation, a solution of 10 mM DTT in 50 mM NH4CO3 was added and incubated for 60 min at 56° C. The DTT solution was removed and a solution of 50 mM iodoacetamide in 50 mM NH4CO3 was added and incubated for 60 min at room temperature (rt). In a final washing step, the gel pieces were washed with 100 μL MilliQ water and 100 μL 50 mM NH4CO3 solution, then the solution was removed, and the gel dehydrated with acetonitrile/MilliQ water (3:2). The washing step was repeated until the gel pieces turned colorless. Next, the dehydration solution was removed, and acetonitrile was added for 10 sec before drying on air until complete dryness. The gel pieces were incubated for […] on ice in a freshly prepared cold buffer containing trypsin (10.0 ng/μL) and 50 mM NH4CO3. […] The combined washes and elutions were dried via SpeedVac and analyzed by an Orbitrap Fusion with EASY-nLC1200 instrument.

Assay [1] relates to HHQ production of P. aeruginosa PAO1. The assay can be described thus: 2-ABA feeding of P. aeruginosa PAO1, HHQ quantified by LC-MS/MS. The conditions noted are these: P. aeruginosa PAO1 grown with 50 μM compound, 2-ABA total 12 mM, 11 h at 37° C. In kind it is cell-based, Pseudomonas aeruginosa. On the procedure: 10 μL of a 5 mM stock of the compound represented by Formula (2) in DMSO or 10 μL of DMSO as vehicle control (1% final DMSO concentration) was added in 1 mL LB medium in 15 mL polypropylene centrifugal tubes. Then, 5 μL P. aeruginosa PAO1 overnight culture was added and grown at 37° C. (190 rpm). Due to the instability of 2-ABA, it was added in six portions. After several time points (6 h, 6.5 h, 7 h, 7.5 h, 8 h and 10 h) the cultures treated with the compound represented by Formula (2) were supplemented with 20 μL 100 mM 2-ABA stock in basic solution (1% NH4OH) or 20 μL basic solution (1% NH4OH) as vehicle control. To investigate the effect of basic solution, the DMSO containing control samples were supplemented with same amounts of basic solution compared to treated samples. The total amount of 2-ABA added to each sample was 12 mM and the pH of the cultures after addition of the total volume of basic solution was under pH 8. After 11 h cultures were centrifuged, supernatants sterile filtered and HHQ extracted and quantified by LC-MS/MS according to the previously described protocol.

For assay [2], the system named is quinolone and phenazine production of P. aeruginosa PA14. The experiment in a line: Quinolone and phenazine inhibition in P. aeruginosa PA14 cultures, LC-MS/MS of supernatants. The format is cell-based, Pseudomonas aeruginosa. On the procedure:
(§1) A LC-MS/MS method was established using characteristic mass transitions for quantitative analysis of metabolites in the supernatants of P. aeruginosa (Table 1, FIGS. 13 to 15). A library of phenazines and synthetic AQs and AQNOs served as standards (Szamosvári, D.; Böttcher, T., Angew Chem Int Ed Engl 2017, 56 (25), 7271-7275). There were also analyzed phenazines, including phenazine-1-carboxamide (PHZ-CA), 1-hydroxyphenazine (1-OH-PHZ), and pyocyanin (PYO), which are produced as virulence factors partially under control of the PQS quorum sensing system (FIG. 16a).
(§2) Ultra-high performance liquid chromatography was performed on a Dionex Ultimate 3000 UHPLC (Thermo Fisher Scientific, Waltham, Mass.) using a Nucleodur C18 Gravity-SB 150×2 mm, 3 μm column (Macherey-Nagel). The flow rate was 0.5 mL/min and the columns temperature was held at 40° C. The injection volume was 5 μL using pick up injection mode. Eluent A was 0.1% formic acid in water and eluent B was acetonitrile. The gradient was 20-100% B in 10 min, 100% B for 2 min, 100-20% B in 1 min and 20% B for 2 min. MS/MS analysis was performed by a Finnigan™ TSQ® Quantum (Thermo electron corporation) mass spectrometer in the SRM (Selected Reaction Monitoring) scan mode. As ion source a heated-electrospray ionization (HESI-II probe, Thermo scientific) was used. In the optimized conditions the ion spray voltage was 3500 V, vaporizer temperature 300° C., capillary temperature 380° C., sheath gas pressure 60 psi, ion sweep gas pressure 2 psi, aux gas 10 psi. The tube lens offset was 80 V and skimmer offset 0. Data were acquired in a mass range of m/z 130-350, and MS/MS acquisition of all compounds was performed in positive mode and fixed collision energy of 30 eV. Dwell time was 0.050 sec for all compounds.
The software Quan Browser Thermo Xcalibur 3.1.66.10 was used for quantitative analysis. The standard peak area of the product ions was fitted by linear regression versus the known concentrations to generate a standard curve. […]

A further assay concerns P. aeruginosa PAO1. The experiment in a line: Minimum inhibitory concentration, P. aeruginosa PAO1. In kind it is cell-based. The conditions noted are these: Pseudomonas aeruginosa; P. aeruginosa PAO1, LB, 24 h at 37° C. On the procedure:
(§3) An overnight culture of P. aeruginosa PAO1 or PA14 was diluted 1:1000 in LB media. Afterwards, 99 μL of bacterial suspension and 1 μL of a corresponding stock solution of the compound represented by Formula (2) in DMSO was added to each well of a sterile, round-bottom 96-well plate. The compound represented by Formula (2) was applied in final concentrations of 1000, 500, 100, 50, 10, 5, 1, 0.5, 0.1, 0.05 μM in triplicates. The plate was incubated for 24 h at 37° C. (180 rpm).

Another assay deals with P. aeruginosa PA01. The assay can be described thus: Bacterial growth curve analysis, P. aeruginosa PAO1. The format is cell-based, Pseudomonas aeruginosa. The conditions noted are these: concentrations up to 100 μM, 27 h at 37° C. On the procedure: (§4) In a sterile 15 mL polypropylene centrifuge tubes with screw caps (Roth) 20 μL of a respective DMSO Stock of the compounds represented by Formulas (2) and (5), or 20 μL DMSO as vehicle control was added for 1% final DMSO concentration. Then, 2 mL of LB medium and 6 μL of an overnight culture of P. aeruginosa PA01 or PA14 was added per sample. The samples were incubated for 27 h at 37° C. (190 rpm). At indicated incubation times 50 μL LB medium and 50 μL of culture were transferred in a cuvette, mixed and the adsorption measured at 600 nm.

In assay [3] the test system is P. aeruginosa PA14. The assay can be described thus: Minimum inhibitory concentration, P. aeruginosa PA14. The format is cell-based. The conditions noted are these: Pseudomonas aeruginosa; P. aeruginosa PA14, LB, 24 h at 37° C. The method, then: as §3
The test system of assay [4] is quinolone and phenazine production of P. aeruginosa PAO1. The experiment in a line: Quinolone and phenazine inhibition in P. aeruginosa PAO1 cultures, LC-MS/MS of supernatants. In kind it is cell-based, Pseudomonas aeruginosa. On the procedure: as §1, §2
The software Quan Browser Thermo Xcalibur 3.1.66.10 was used for quantitative analysis. The standard peak area of the product ions was fitted by linear regression versus the known concentrations to generate a standard curve.
Cultures of P. aeruginosa strains PAO1 and PA14 were incubated with different concentrations of the compound represented by Formula (2) for 24 h and extracted culture supernatants were used for LC-MS/MS analysis.
10 μL of a respective DMSO stock solution of compound represented by Formula (2) or 10 μL DMSO as vehicle control (0.33% final DMSO concentration) was added to 3 mL LB medium in 15 mL polypropylene centrifuge tubes with screw caps (VWR) to obtain final concentrations of 10, 50 and 100 μM. Afterwards 10 μL of a P. aeruginosa PAO1 or PA14 overnight culture was added. The caps of the sample tubes were slightly opened and fixed in a defined position by tape to ensure equal oxygen delivery to all samples. […] (180 rpm). Afterwards, the samples were centrifuged and the supernatants sterile filtered. The inhibition assay was performed in 3-4 biological replicates.
500 μL of sterile supernatant was transferred in 1.5 mL glass vials, 500 μL chloroform was added and vortexed thoroughly. Then, 200 μL of the organic layer was transferred in a clean 1.5 mL glass vial and the solvent evaporated by a gentle stream of nitrogen. The extract was stored at −80° C. until measurement. For analysis, 50 μL acetonitrile/water (1:1) was added to each sample.
MeOH stock solutions of PQS, AQs, AQNOs and phenazines were prepared at 1 mg/mL in glass vials and stored at −80° C. A series of standard solutions was prepared freshly before LC-MS/MS analysis by serial dilutions of the stock solution of each analyte in acetonitrile/water (1:1).

The test system of assay [5] is P. aeruginosa PA14. The assay can be described thus: Bacterial growth curve analysis, P. aeruginosa PA14. The conditions noted are these: concentrations up to 100 μM, 27 h at 37° C. In kind it is cell-based, Pseudomonas aeruginosa. On the procedure:
as §4

T1 sequence (P20582 whole entry): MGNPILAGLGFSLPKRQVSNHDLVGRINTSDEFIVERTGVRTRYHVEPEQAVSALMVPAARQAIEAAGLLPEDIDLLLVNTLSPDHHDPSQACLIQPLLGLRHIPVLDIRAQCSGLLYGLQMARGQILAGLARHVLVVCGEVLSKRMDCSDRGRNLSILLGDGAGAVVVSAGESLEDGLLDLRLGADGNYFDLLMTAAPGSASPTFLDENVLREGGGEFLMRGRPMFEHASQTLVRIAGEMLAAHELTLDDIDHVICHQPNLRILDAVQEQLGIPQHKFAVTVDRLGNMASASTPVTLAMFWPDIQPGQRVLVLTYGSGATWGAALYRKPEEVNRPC

In the case of `Nc1ccccc1C(=O)CCl` [Formula (2), 2′-amino-1-chloro-acetophenone], the “site of covalent binding in PqsD (six cysteines in total)” value at PqsD is on record as “only bound to the active site cysteine (Cys112)”. Further, the “HHQ production after external addition of 2-ABA to inhibited culture” value in assay [1] is reported as “partially restored”. Moreover, the “production of all major quorum sensing signals, PQS and the chain length congeners of HHQ” value was “slightly lesser degree” in assay [2] (compared with PAO1 (complete inhibition between 50 μM and 100 μM), 24 h); “completely inhibited” in assay [4] (P. aeruginosa PAO1, between 50 μM and 100 μM, 24 h). Further, the “intensity of quinolones and phenazines (LC-MS/MS chromatograms)” value is reported as “considerably decreased” in assay [2] (increasing concentrations 10, 50, 100 μM, 24 h) and “considerably decreased” in assay [4] (P. aeruginosa PAO1, increasing concentrations 10, 50, 100 μM, 24 h). The MIC with P. aeruginosa PAO1 and with P. aeruginosa PA14 [3] was greater than 1000 µM throughout. The “growth (OD 600 nm growth curve)” value in the assay with P. aeruginosa PA01 and with P. aeruginosa PA14 [5] was “largely unaffected” each time. Besides, the IC50 in assay [4] (Pseudomonas aeruginosa, PAO1, 24 h, read-out: average IC50 for production of all major quorum sensing signals, PQS and the chain length congeners of HHQ) is less than 10 µM. Moreover, in assay [4] (dose response manner, 10, 50, 100 μM, strain not given, 24 h), the “production of quinolone N-oxide congeners incl. HQNO, NQNO and trans-Δ1-NQNO” value was “inhibited”. The “phenazine production (1-OH-PHZ, PHZ-CA, pyocyanin)” value in assay [4] (strongest for 1-OH-PHZ and weakest for pyocyanin, strain not given, 24 h) was “down-regulation of phenazines”.
For the compound `O=C(CCl)c1cccc2cc[nH]c12` [Formula (5)], the “inhibition of quinolone production” value in assay [2] (100 μM, 27 h at 37° C. (FIG. 20b)) is reported as “observed”; in assay [4] (P. aeruginosa PAO1, 100 μM, 27 h at 37° C. (FIG. 20a)) it was “observed”. For the same compound, the “growth (OD 600 nm growth curve)” value with P. aeruginosa PA01 and with P. aeruginosa PA14 [5] was “largely unaffected” in each case.

Broadly, the MIC is the lowest concentration found to suppress growth. One may read the IC50 as the concentration needed to halve the response being measured.

These data come from patent US20210393586A1, “Compounds for Use in the Treatment of Bacterial Infections” (Universität Konstanz, priority 2018, published 2021).
